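Values below derive from 48-hour exposures of cells grown in 96-well plates, with endpoints linearly interpolated between the two concentrations bracketing the appropriate inhibition level. Definition used: TGI = concentration required for complete inhibition of growth.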
What was measured:
Assay in all cases: growth of human tumour cells (NCI), 48 h
A549 NSCLC = tested on: A549 NSCLC
HCT-15 colon = tested on: HCT-15 colon
SK-MEL-28 melanoma = tested on: SK-MEL-28 melanoma
SNB-75 CNS = tested on: SNB-75 CNS
A498 renal = tested on: A498 renal
SR leukemia = tested on: SR leukemia
HCT-116 colon = tested on: HCT-116 colon
SK-MEL-2 melanoma = tested on: SK-MEL-2 melanoma
OVCAR-5 ovarian = tested on: OVCAR-5 ovarian
SF-539 CNS = tested on: SF-539 CNS
SNB-19 CNS = tested on: SNB-19 CNS
SNB-78 CNS = tested on: SNB-78 CNS
DMS 114 small cell lung = tested on: DMS 114 small cell lung
SK-MEL-5 melanoma = tested on: SK-MEL-5 melanoma
K-562 leukemia = tested on: K-562 leukemia
U251 CNS = tested on: U251 CNS
DMS 273 small cell lung = tested on: DMS 273 small cell lung
NCI-H522 lung = tested on: NCI-H522 lung
NCI-H460 lung = tested on: NCI-H460 lung
RPMI-8226 leukemia = tested on: RPMI-8226 leukemia
IGROV1 ovarian = tested on: IGROV1 ovarian
SK-OV-3 ovarian = tested on: SK-OV-3 ovarian
UACC-62 melanoma = tested on: UACC-62 melanoma
HT29 colon = tested on: HT29 colon
XF 498 CNS = tested on: XF 498 CNS
OVCAR-4 ovarian = tested on: OVCAR-4 ovarian
M14 melanoma = tested on: M14 melanoma
ACHN renal = tested on: ACHN renal
MOLT-4 leukemia = tested on: MOLT-4 leukemia
OVCAR-8 ovarian = tested on: OVCAR-8 ovarian
KM12 colon = tested on: KM12 colon
CCRF-CEM leukemia = tested on: CCRF-CEM leukemia
EKVX NSCLC = tested on: EKVX NSCLC
LXFL 529 NSCLC = tested on: LXFL 529 NSCLC
SF-295 CNS = tested on: SF-295 CNS
KM20L2 colon = tested on: KM20L2 colon
M19-MEL melanoma = tested on: M19-MEL melanoma
HCC-2998 colon = tested on: HCC-2998 colon
NCI-H23 lung = tested on: NCI-H23 lung
UACC-257 melanoma = tested on: UACC-257 melanoma
DLD-1 colon = tested on: DLD-1 colon
MALME-3M melanoma = tested on: MALME-3M melanoma
CAKI-1 renal = tested on: CAKI-1 renal
SN12C renal = tested on: SN12C renal
UO-31 renal = tested on: UO-31 renal
SF-268 CNS = tested on: SF-268 CNS
HOP-62 NSCLC = tested on: HOP-62 NSCLC
HL-60(TB) leukemia = tested on: HL-60(TB) leukemia
OVCAR-3 ovarian = tested on: OVCAR-3 ovarian
SW-620 colon = tested on: SW-620 colon
COLO 205 colon = tested on: COLO 205 colon
HOP-92 NSCLC = tested on: HOP-92 NSCLC
TK-10 renal = tested on: TK-10 renal

Measured: TGI

Cn1c(=O)c2nc(N3CCOCC3)cnc2n(C)c1=O
> 100 µM: A549 NSCLC | HCT-15 colon | SK-MEL-28 melanoma | SNB-75 CNS | A498 renal | SR leukemia | HCT-116 colon | SK-MEL-2 melanoma | OVCAR-5 ovarian | SF-539 CNS | SNB-19 CNS | SNB-78 CNS | DMS 114 small cell lung | SK-MEL-5 melanoma | K-562 leukemia | U251 CNS | DMS 273 small cell lung | NCI-H522 lung | NCI-H460 lung | RPMI-8226 leukemia | IGROV1 ovarian | SK-OV-3 ovarian | UACC-62 melanoma | HT29 colon | XF 498 CNS | OVCAR-4 ovarian | M14 melanoma | ACHN renal | MOLT-4 leukemia | OVCAR-8 ovarian | KM12 colon | CCRF-CEM leukemia | EKVX NSCLC | LXFL 529 NSCLC | SF-295 CNS | KM20L2 colon | M19-MEL melanoma | HCC-2998 colon | NCI-H23 lung | UACC-257 melanoma | DLD-1 colon | MALME-3M melanoma | CAKI-1 renal | SN12C renal | UO-31 renal | SF-268 CNS | HOP-62 NSCLC | HL-60(TB) leukemia | OVCAR-3 ovarian | SW-620 colon | COLO 205 colon | HOP-92 NSCLC | TK-10 renal

From PubChem BioAssay (NCI)
